Assay results from ChEMBL document CHEMBL1201862, “PubChem BioAssay data set” (2004).
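Assay format: 96-well plates, 48-hour exposure. GI50 is the concentration that inhibits growth by half.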 Calls of active or inactive are those of the source. Cut-off read from the data, not from the text of the source: active = GI50 up to about 1.1 µM and inactive = higher. Square brackets hold non-standard residues; d marks the D form. Peptide text beside a SMILES is read from it. * marks the point of attachment. AllylGly = C=CC[CH](N)C(=O)O; Boc = CC(C)(C)OC(=O)*; OtBu = CC(C)(C)O*

Legend:
Assay in all cases: growth of human tumour cells (NCI), 48 h
OVCAR-8 = test system: OVCAR-8
NCI-H522 = test system: NCI-H522
NCI/ADR-RES = test system: NCI/ADR-RES
UACC-62 = test system: UACC-62
HCT-15 = test system: HCT-15
RPMI-8226 = test system: RPMI-8226
KM12 = test system: KM12
RXF 393 = test system: RXF 393
HCC 2998 = test system: HCC 2998
CCRF-CEM = test system: CCRF-CEM
SF-268 = test system: SF-268
HOP-92 = test system: HOP-92
Hs-578T = test system: Hs-578T
DU-145 = test system: DU-145
SNB-75 = test system: SNB-75
LOX IMVI = test system: LOX IMVI
SF-295 = test system: SF-295
U-251 = test system: U-251
MDA-MB-231 = test system: MDA-MB-231
KM-20L2 = test system: KM-20L2

Measured: GI50

Cc1nc2c(O)c3c(c(O)c2nc1C)C1C=CC3CC1
inactive: OVCAR-8 7.45 µM | NCI-H522 16 µM | NCI/ADR-RES 3.71 µM | UACC-62 21.2 µM | RPMI-8226 2.92 µM | KM12 15.7 µM | RXF 393 9.23 µM | HCC 2998 > 40.2 µM | CCRF-CEM 1.25 µM | SF-268 10.4 µM | HOP-92 2.9 µM | Hs-578T 32.1 µM | DU-145 > 75.3 µM | SNB-75 32.2 µM | LOX IMVI 3.53 µM | SF-295 29.7 µM | U-251 9.44 µM | MDA-MB-231 3.02 µM
17.1 µM: HCT-15

CN(C)c1ccc(-c2nc(N)nc3c2CCCC3)cc1
inactive: OVCAR-8 74.5 µM | NCI-H522 25.2 µM | UACC-62 44.7 µM | RPMI-8226 30 µM | KM12 54 µM | KM-20L2 57.8 µM | RXF 393 34 µM | HCC 2998 80 µM | CCRF-CEM 50.5 µM | SF-268 47.2 µM | SNB-75 42 µM | LOX IMVI 31.3 µM | SF-295 38.5 µM | U-251 53.7 µM

CC(=O)C1C(c2ccc(N(C)C)cc2)c2cc3c(cc2OC1(C)O)OCO3 (stereo not drawn)
41.3 µM: HCT-15
inactive: OVCAR-8 73.5 µM | UACC-62 32.9 µM | RPMI-8226 26.7 µM | KM-20L2 6.85 µM | RXF 393 33.3 µM | CCRF-CEM 32.5 µM | HOP-92 8.32 µM | SNB-75 24.7 µM | LOX IMVI 42.1 µM | SF-295 28.7 µM | U-251 52.7 µM

CCOP1(=O)CC(C)=C(Cl)C(O)C1 (stereo not drawn)
> 100 µM: HCT-15
inactive: OVCAR-8 > 100 µM | NCI-H522 > 100 µM | NCI/ADR-RES > 100 µM | UACC-62 > 100 µM | RPMI-8226 > 100 µM | KM12 > 100 µM | RXF 393 > 100 µM | HCC 2998 > 100 µM | CCRF-CEM > 100 µM | SF-268 > 100 µM | HOP-92 > 100 µM | Hs-578T > 100 µM | DU-145 > 100 µM | SNB-75 40.3 µM | LOX IMVI > 100 µM | SF-295 > 100 µM | U-251 > 100 µM | MDA-MB-231 > 100 µM

CN1CCN(c2ccc3nc(C4=C(O)C(=O)c5c(nc(CO)n5C)C4=O)[nH]c3n2)CC1
inactive: OVCAR-8 > 100 µM | NCI-H522 > 100 µM | NCI/ADR-RES > 100 µM | UACC-62 74.3 µM | RPMI-8226 93.8 µM | KM12 > 100 µM | RXF 393 15.8 µM | HCC 2998 > 100 µM | CCRF-CEM > 100 µM | SF-268 > 100 µM | HOP-92 > 100 µM | Hs-578T > 100 µM | DU-145 > 100 µM | SNB-75 24.6 µM | LOX IMVI > 100 µM | SF-295 > 100 µM | U-251 76.2 µM | MDA-MB-231 > 100 µM
> 100 µM: HCT-15

Cc1nc(Nc2ccccc2)sc1C(=O)NNc1ccc([N+](=O)[O-])cc1[N+](=O)[O-]
inactive: OVCAR-8 39.2 µM | NCI-H522 19.5 µM | UACC-62 5.94 µM | KM12 34.4 µM | KM-20L2 24.7 µM | RXF 393 35.2 µM | HCC 2998 43.7 µM | CCRF-CEM 14.2 µM | SF-268 75.5 µM | SNB-75 22.7 µM | LOX IMVI 21.4 µM | SF-295 27.5 µM | U-251 38.6 µM
26.2 µM: HCT-15

O=C(c1ccc(Cl)c(Cl)c1)N(C(=O)N1CCN(c2ccccc2)CC1)S(=O)(=O)c1ccccc1
24.5 µM: HCT-15
inactive: OVCAR-8 26.9 µM | NCI-H522 19 µM | NCI/ADR-RES 34 µM | UACC-62 32.8 µM | RPMI-8226 32.6 µM | KM12 > 100 µM | RXF 393 > 100 µM | HCC 2998 > 100 µM | CCRF-CEM 19 µM | SF-268 38.2 µM | HOP-92 20.9 µM | Hs-578T 57 µM | DU-145 > 100 µM | SNB-75 91.4 µM | LOX IMVI 19.9 µM | SF-295 49.4 µM | U-251 25.5 µM | MDA-MB-231 35.6 µM

CC(=O)OCC1OC(n2cc(F)c(=O)[nH]c2=O)C(NC(=O)N(CCCl)N=O)C(OC(C)=O)C1OC(C)=O (stereo not drawn)
inactive: OVCAR-8 > 100 µM | NCI-H522 > 100 µM | UACC-62 23.2 µM | RPMI-8226 > 100 µM | KM12 > 100 µM | KM-20L2 > 100 µM | CCRF-CEM > 100 µM | SF-268 17.3 µM | HOP-92 > 100 µM | SNB-75 16.6 µM | LOX IMVI 43.3 µM | SF-295 43.1 µM | U-251 88.9 µM

COC(=O)C1=C(OC(=O)/C=C/c2ccccc2)C(C(=O)OC)[C@@]2(O)[C@@H](C(=O)OC)[C@H](C)C[C@@H]1[C@@H]2C(=O)OC (stereo partly drawn)
11.7 µM: HCT-15
inactive: OVCAR-8 14.2 µM | NCI-H522 5.58 µM | NCI/ADR-RES 16.7 µM | UACC-62 12.6 µM | RPMI-8226 8.47 µM | KM12 27.9 µM | RXF 393 4.05 µM | HCC 2998 19.4 µM | CCRF-CEM 56.5 µM | SF-268 24.2 µM | HOP-92 20.4 µM | Hs-578T 14.7 µM | DU-145 18 µM | SNB-75 19.4 µM | LOX IMVI 22.1 µM | SF-295 19.9 µM | U-251 18.8 µM | MDA-MB-231 14.8 µM

COc1ccc(CC2c3cc(Oc4cc(CC5c6cc(OC)c(OC)cc6CCN5C)ccc4O)c(OC)cc3CCN2C)cc1 (stereo not drawn)
active: CCRF-CEM 0.519 µM
inactive: OVCAR-8 5.96 µM | NCI-H522 6.81 µM | NCI/ADR-RES 7.48 µM | UACC-62 8.65 µM | RPMI-8226 2.44 µM | KM12 1.77 µM | RXF 393 5.92 µM | HCC 2998 1.14 µM | SF-268 9.14 µM | HOP-92 7.41 µM | Hs-578T 9.62 µM | DU-145 1.3 µM | SNB-75 8.45 µM | LOX IMVI 2.55 µM | SF-295 8.2 µM | U-251 5.74 µM | MDA-MB-231 7.91 µM
2.17 µM: HCT-15

CS/C(=N/C#N)NCCc1c[nH]c2ccccc12
> 100 µM: HCT-15
inactive: OVCAR-8 > 100 µM | UACC-62 > 100 µM | RPMI-8226 96.8 µM | KM12 > 100 µM | KM-20L2 44.9 µM | RXF 393 > 100 µM | HCC 2998 > 100 µM | CCRF-CEM 48.2 µM | SF-268 > 100 µM | SNB-75 35.2 µM | LOX IMVI > 100 µM | SF-295 > 100 µM | U-251 > 100 µM

CN(C)CC/C(=N\Nc1ccc(Cl)cc1)c1ccccc1
inactive: OVCAR-8 2.24 µM | NCI-H522 1.32 µM | RXF 393 2.57 µM | SNB-75 2.15 µM
active: UACC-62 0.556 µM | RPMI-8226 0.64 µM | KM12 0.589 µM | KM-20L2 0.176 µM | CCRF-CEM 0.417 µM | SF-268 0.566 µM | LOX IMVI 0.256 µM | SF-295 0.374 µM | U-251 0.513 µM
0.327 µM: HCT-15

CC(=O)Nc1cc2c(s1)CCC1CC(=O)NN=C21 (stereo not drawn)
inactive: OVCAR-8 > 100 µM | NCI-H522 > 100 µM | UACC-62 > 100 µM | RPMI-8226 > 100 µM | KM12 > 100 µM | KM-20L2 > 100 µM | RXF 393 > 100 µM | CCRF-CEM > 100 µM | SF-268 > 100 µM | SNB-75 26.5 µM | LOX IMVI > 100 µM | SF-295 > 100 µM | U-251 > 100 µM
> 100 µM: HCT-15

CC1(C)COC(c2cccc3c2C(=O)c2cccc(Cl)c2-3)=N1
inactive: OVCAR-8 38.4 µM | NCI-H522 31.8 µM | UACC-62 51.5 µM | RPMI-8226 31.7 µM | KM12 47.9 µM | KM-20L2 39.9 µM | RXF 393 22.7 µM | HCC 2998 29.7 µM | CCRF-CEM 43 µM | SF-268 56.5 µM | SNB-75 41.7 µM | LOX IMVI 51.9 µM | SF-295 48.4 µM | U-251 68.4 µM
56.4 µM: HCT-15

COc1cc(/C=C(\C#N)C(=O)c2ccccc2)ccc1OCc1ccccc1
inactive: OVCAR-8 > 100 µM | NCI-H522 > 100 µM | UACC-62 > 100 µM | RPMI-8226 > 100 µM | KM12 > 100 µM | KM-20L2 > 100 µM | HCC 2998 > 100 µM | CCRF-CEM > 100 µM | LOX IMVI > 100 µM | SF-295 > 100 µM
> 100 µM: HCT-15

CCN(CC)CCC(=O)c1ccc(Cl)c(Cl)c1
34.6 µM: HCT-15
inactive: OVCAR-8 37.2 µM | NCI-H522 17.3 µM | NCI/ADR-RES 34.1 µM | UACC-62 14.8 µM | RPMI-8226 3.61 µM | KM12 34.6 µM | RXF 393 12.5 µM | HCC 2998 43.6 µM | CCRF-CEM 17.6 µM | SF-268 20.8 µM | HOP-92 14.8 µM | Hs-578T 17.1 µM | DU-145 67.1 µM | SNB-75 27.7 µM | LOX IMVI 15 µM | SF-295 > 100 µM | U-251 36.6 µM | MDA-MB-231 > 10 µM

C=CCC(NC(=O)C(CC(=O)OC(C)(C)C)NC(=O)OC(C)(C)C)C(=O)OC (stereo not drawn) (Boc-Asp(OtBu)-[AllylGly]-OMe; configuration not given here)
inactive: OVCAR-8 16 µM | NCI-H522 > 100 µM | NCI/ADR-RES > 100 µM | UACC-62 48.3 µM | RPMI-8226 32.4 µM | KM12 > 55.2 µM | RXF 393 99.3 µM | HCC 2998 25.9 µM | CCRF-CEM 45.8 µM | SF-268 51.2 µM | HOP-92 > 78.2 µM | Hs-578T > 100 µM | DU-145 > 100 µM | SNB-75 97.9 µM | LOX IMVI 20.9 µM | SF-295 > 100 µM | U-251 > 42.9 µM | MDA-MB-231 > 100 µM
> 100 µM: HCT-15
